Patent US20050106554A1, “Cryopreservation of pluripotent stem cells” (priority 2003, published 2005)

What was measured:
HES cells [1] = assay: Trypan blue exclusion after cryopreservation of HES colonies in suspension; format: cell-based, human; settings: DMSO 0 to 10% in freezing medium, Trypan blue (FIG. 1)
Experimental: In order to cryopreserve ES cells in suspension, cells were grown to approximately 1000-10,000 cell colonies on Matrigel™ or a MEF feeder layer. Average colony size was determined by counting colony number in a representative sample, then dispersing cells in the colony by treatment with 10 mg/ml dispase and counting cell number. 1 mg/ml collagenase was used to detach colonies from the plate and the colonies were resuspended in freezing medium containing FBS, DMSO and CM at varying concentrations. Cells were not dispersed during freezing. The solution was not seeded to form extracellular ice. 1 ml of 1-3×10^5 cells/ml were placed in a cryovial and frozen at approximately −1° C. per minute. Initial studies were performed by placing cells in a Nalgene Cryo 1° C. freeze container in a −80° C. freezer, and later samples were frozen in a controlled-rate freezer (Forma Scientific, Model 8026). […] After reaching −80° C., cells were stored in liquid nitrogen. HES cells were harvested from a flat-bottomed 24-well tissue culture plate coated with Matrigel™ by addition of trypsin-EDTA (0.25% trypsin, 1 mM EDTA) until colonies were completely dispersed. HES cells were resuspended in 500 μl HES medium containing 10% FBS. […] Total cell number and the fraction of cells that incorporated Trypan blue were counted on a hemacytometer. […]

HES cells [2] = assay: Cell viability by MTT and Alamar blue assays after cryopreservation of adherent HES colonies; format: cell-based, human
Experimental: In this example, cells were grown to approximately 1000-10,000 cell colonies on Matrigel™ or a MEF feeder layer in a 24 well plate. Average colony size was determined by counting colony number in a representative sample, then dispersing cells in the colony by treatment with 10 mg/ml dispase and counting cell number. The growth medium was aspirated from each well and a top layer of Matrigel™ was poured over the adherent colonies by diluting 6 mg Matrigel™ in 12 ml CM/F+ (conditioned medium+bFGF) and adding 0.5 ml to each well of the 24 well plate. The plate was incubated at 37° C. in a humidified 5% CO2 incubator for 1 hr and the Matrigel™ solution was aspirated from the plate. Then, 0.5 ml growth medium (HES or CM/F+ was added to each well and cells were cultured in the Matrigel™ for up to 2 days. Growth medium was aspirated from each well and 0.5 ml freezing medium containing varying concentrations of FBS, DMSO, and CM was added to each well. The fresh freezing medium was made on the day of freezing. The freezing medium generally contains 10% DMSO, 30% FBS and 60% conditioned HES media. The medium on the plate was aspirated off and replaced with 0.5 ml freezing medium.
The plate was sealed with parafilm and frozen to −80° C. at −1° C. per minute. Initial studies were performed by placing cells in a parafilm-sealed Styrofoam box in a −80° C. freezer, and later samples were frozen in a controlled-rate freezer (Model 8026, Forma Scientific). […] The solution was not seeded to form extracellular ice. The plates containing the cells were then transferred to liquid nitrogen and stored 5-7 days, which was long enough to stabilize the cells but permitted a reasonable experimental throughput.
To thaw the ES cells, plates were placed in a 37° C. water bath and swirled to thaw as rapidly as possible. After thawing, 1 ml fresh CM/F+ medium was added in a drop-wise manner to each well, then aspirated. Fresh media (0.5 ml) was added to each well and the cells were incubated at 37° C. in a humidified 5% CO2 incubator. […]
HES cells were cultured grown on flat-bottomed 24-well tissue culture plates coated with Matrigel™, with 0.5 ml CM/F+ in each well. […] Within an hour, absorbance at 595 nm was measured on a plate reading spectrophotometer (TECAN Genios). A standard curve for the MTT assay (not shown) was generated by growing HES colonies to different concentrations, ranging from 5×10^4 cells per well to 2×10^6 cells per well (determined by counting dispersed cells on a hemacytometer) on a Matrigel™-coated 24 well plate.
HES cells were cultured on flat-bottomed 24-well tissue culture plates coated with Matrigel™, with 0.5 ml CM/F+ in each well. […] Then absorbance was measured on a TECAN Genios plate reader at 595 nm. […]

HES colonies = assay: Colony recovery (colony count) after cryopreservation of adherent HES colonies; format: cell-based, human; settings: adherent without top Matrigel layer, 5 days after thawing
Experimental: In addition to providing higher cell viability, cryopreservation of adherent colonies increases the number of colonies that are able to remain attached to the surface and eventually grow (i.e., higher recovery rate). […] In referring to FIG. 4, approximately 10^6 HES cells were cultured in the well of a Matrigel™-coated 24 well plate. Colonies in sample a were harvested from the plate as intact colonies (were not dispersed) and suspended in cryopreservation media containing 10% DMSO, 30% FBS, and 60% CM/F+. Samples b-e were preserved attached to the Matrigel™ layer in the same cryopreservation media. Sample b was preserved without an additional layer of Matrigel™ poured over the cells prior to freezing, c with a Matrigel™ layer poured 1 hr prior to freezing, d with a Matrigel™ layer poured 24 hr prior to freezing, and e with a Matrigel™ layer poured 48 hr prior to freezing. All samples were stored in liquid nitrogen and thawed after 3 days, then grown for 1-2 weeks. Colonies were then counted to determine colony recovery. Error bars represent SEM for at least four independent trials.
Loading cells with 35 mM trehalose for 24 hours prior to freezing, and then freezing in medium containing DMSO results in an increase in the number of adherent colonies following thawing; virtually all colonies remain attached to the surface and can grow (FIG. 10). […]

[3] = test system: SSEA4 expression on HES cells; assay: SSEA4 expression on cryopreserved HES cells by flow cytometry; format: cell-based, human; settings: attached to Matrigel, loaded with 35 mM trehalose for 1 day; 10% DMSO, 30% FBS, 60% CM/F+ medium
Experimental: SSEA4 expression was determined by flow cytometry. After thawing, cells were allowed to grow on Matrigel™ in CM/F+ medium for 7 days, then colonies were removed from Matrigel™ by 1 mg/ml collagenase IV (GIBCO/BRL) treatment. Cells were dispersed by treatment with a 0.05% trypsin, 0.53 mM EDTA solution (GIBCO/BRL) for 5-10 minutes and filtered through a 40 μm mesh. 100 μl of the cell suspension containing 5×10^6 cells/ml was added to a sample tube and a control tube. 1 μl of MC813-70 (anti-SSEA4) (Kannagi et al. 1983) was added to the test tube and 5 μl of 1 mg/ml mouse IgG (Sigma) was added to the control tube. Tubes were vortexed and incubated on ice for 30 min. […] Samples were analyzed using a FACScan flow cytometer (Becton Dickinson) and Cellquest software (Becton Dickinson). […] The fluorescein signal was obtained through a 530/30 band pass filter and the mean fluorescence values for the IgG control and test samples were determined.
Furthermore, in addition to retention of OCT4 expression (see FIG. 6), applicants observed that when HES colonies were frozen in suspension in cryovials, adherent to Matrigel™, embedded in Matrigel™, and loaded with trehalose were able to maintain SSEA4 expression after recovery (FIG. 11, Table 1). […] The gated region for all samples was determined from the positive control (Sample A). […]

HES cells [4] = assay: Toxicity of trehalose in growth medium; format: cell-based, human; settings: cell exposure to growth medium containing trehalose
human keratinocytes = settings: intracellular trehalose on the order of 0.2M; cited from earlier work
murine 3T3 fibroblasts = settings: intracellular trehalose on the order of 0.2M; cited from earlier work
human pancreatic islets = settings: trehalose formulations added to cryopreserved islets; cited from earlier work
[5] = test system: hematopoeitic precursor cells; settings: trehalose added to cryopreservation media containing DMSO and FBS; cited from earlier work

| SMILES | protection from membrane rupture during cryopreservation (HES cells [1]) | increase in viability compared to DMSO alone (HES cells [2]; 35 mM trehalose loaded 24 hours, 10% DMSO and FBS above 50%, p<0.05) | viability vs loading for 24 hours or not loading (HES cells [2]; 35 mM trehalose loaded 48 hours) | additional protection during freezing and thawing (HES cells [2]; 35 mM trehalose loading, 10% DMSO and FBS concentrations less than 50%) | protection during freezing and thawing (HES cells [2]; 35 mM trehalose loading, absence of DMSO) | colonies recovered (HES colonies; loaded with 35 mM trehalose for 24 hours) | colonies recovered (HES colonies; loaded with 35 mM trehalose for 48 hours) | Percent of cells gated (SSEA4) [3] | trehalose concentration in growth medium causing toxicity (HES cells [4]) | cells surviving a freeze-thaw cycle (human keratinocytes) | cells surviving a freeze-thaw cycle (murine 3T3 fibroblasts) | viable cell recovery (human pancreatic islets) | increase in viability [5] |
| --- | --- | --- | --- | --- | --- | --- | --- | --- | --- | --- | --- | --- | --- |
| C[S+](C)[O-] [DMSO, dimethyl sulfoxide] | protect HES cells from membrane rupture |  |  |  |  |  |  |  |  |  |  |  |  |
| OC[C@H]1O[C@H](O[C@H]2O[C@H](CO)[C@@H](O)[C@H](O)[C@H]2O)[C@H](O)[C@@H](O)[C@@H]1O [trehalose] |  | 25% | lower viability | no additional protection | no protection | 82%±5% | 48%±10% | 81.5 | greater than 35 mM | approximately 75% | approximately 75% | doubles | 7-20% |
